From patent US12297194B2, “N2-phenylpyrimidine-2,4-diamine compounds, and preparation methods and methods of use thereof” (BRIDGE BIOTHERAPEUTICS, INC., priority 2021, dated 2025)

Assays:
Assay type in all cases: cell-based, murine
[1] = target: Ba/F3 EGFR Del19/T790M/C797S mutants (Homo sapiens, UniProt P00533, T790M/C797S, cells depend on it, form not given); assay: CellTiter-Glo cell viability, Ba/F3 EGFR Del19/T790M/C797S cells; details: 72 hours, read-out: Ba/F3 EGFR mutant cell (IC50, nM) D/T/C
In short: (§1)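 IC50s come from CellTiter-Glo ATP luminescence after 72 h of compound exposure (0, 0.3 up to 2000 nM, 10 concentrations). Ba/F3 lines carried wild-type or mutant EGFR and were plated at 2500 cells/well one day before treatment.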

[2] = target: Ba/F3 EGFR L858R/C797S mutants (Homo sapiens, UniProt P00533, C797S/L858R, cells depend on it); assay: CellTiter-Glo cell viability, Ba/F3 EGFR L858R/C797S cells; details: 72 hours, read-out: Ba/F3 EGFR mutant cell (IC50, nM) L/C
In short: as §1

[3] = target: Ba/F3 EGFR Del19/C797S mutants (Homo sapiens, UniProt P00533, C797S, cells depend on it, form not given); assay: CellTiter-Glo cell viability, Ba/F3 EGFR Del19/C797S cells; details: 72 hours, read-out: Ba/F3 EGFR mutant cell (IC50, nM) D/C
In short: as §1

[4] = target: Ba/F3 EGFR L858R/T790M/C797S mutants (Homo sapiens, UniProt P00533, T790M/C797S/L858R, cells depend on it); assay: CellTiter-Glo cell viability, Ba/F3 EGFR L858R/T790M/C797S cells; details: 72 hours, read-out: Ba/F3 EGFR mutant cell (IC50, nM) L/T/C
In short: as §1

[5] = target: Ba/F3 EGFR Del19/T790M mutants (Homo sapiens, UniProt P00533, T790M, cells depend on it, form not given); assay: CellTiter-Glo cell viability, Ba/F3 EGFR Del19/T790M cells; details: 72 hours, read-out: Ba/F3 EGFR mutant cell (IC50, nM) D/T
In short: as §1

Ba/F3 EGFR Wild-type = Ba/F3 EGFR Wild-type (Homo sapiens, UniProt P00533); assay: CellTiter-Glo cell viability, Ba/F3 EGFR wild-type cells; details: 72 hours, read-out: Ba/F3 EGFR mutant cell (IC50, nM) WT
In short: as §1

Ba/F3 EGFR Del19/T790M/C797S mutants, sequence (P00533 with tags, fused parts or gaps DEL746-750/T790M/C797S, form open): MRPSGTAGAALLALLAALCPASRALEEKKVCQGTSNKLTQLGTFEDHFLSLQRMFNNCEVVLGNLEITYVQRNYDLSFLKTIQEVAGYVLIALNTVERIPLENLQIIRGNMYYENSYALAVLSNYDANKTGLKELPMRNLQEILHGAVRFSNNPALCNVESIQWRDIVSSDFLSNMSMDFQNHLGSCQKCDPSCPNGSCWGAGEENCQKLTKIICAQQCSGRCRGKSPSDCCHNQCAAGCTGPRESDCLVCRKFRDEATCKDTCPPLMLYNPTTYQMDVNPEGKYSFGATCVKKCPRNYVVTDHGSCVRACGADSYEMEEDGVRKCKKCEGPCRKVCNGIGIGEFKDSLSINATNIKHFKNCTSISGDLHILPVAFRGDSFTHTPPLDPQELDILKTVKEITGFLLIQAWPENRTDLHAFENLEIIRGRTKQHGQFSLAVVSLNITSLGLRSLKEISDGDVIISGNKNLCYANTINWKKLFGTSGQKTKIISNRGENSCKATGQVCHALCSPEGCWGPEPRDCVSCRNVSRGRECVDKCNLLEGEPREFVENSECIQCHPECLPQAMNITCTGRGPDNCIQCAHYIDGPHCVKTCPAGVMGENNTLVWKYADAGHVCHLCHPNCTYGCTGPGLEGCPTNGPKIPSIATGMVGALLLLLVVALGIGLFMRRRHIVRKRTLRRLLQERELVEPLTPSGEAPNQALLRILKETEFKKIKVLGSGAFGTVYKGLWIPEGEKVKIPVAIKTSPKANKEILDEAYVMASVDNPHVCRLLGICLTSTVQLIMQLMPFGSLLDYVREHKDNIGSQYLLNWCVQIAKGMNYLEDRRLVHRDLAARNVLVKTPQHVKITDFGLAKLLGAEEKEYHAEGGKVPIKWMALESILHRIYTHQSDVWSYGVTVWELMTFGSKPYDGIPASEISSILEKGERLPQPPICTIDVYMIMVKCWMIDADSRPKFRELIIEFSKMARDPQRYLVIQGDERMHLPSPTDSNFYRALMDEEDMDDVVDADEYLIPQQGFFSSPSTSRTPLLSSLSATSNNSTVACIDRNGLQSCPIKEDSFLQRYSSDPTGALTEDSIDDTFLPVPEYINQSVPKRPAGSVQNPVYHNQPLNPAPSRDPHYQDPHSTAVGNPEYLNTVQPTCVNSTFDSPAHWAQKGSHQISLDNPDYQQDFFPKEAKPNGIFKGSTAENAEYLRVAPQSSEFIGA
Ba/F3 EGFR Wild-type, sequence (P00533 whole entry, change not shown): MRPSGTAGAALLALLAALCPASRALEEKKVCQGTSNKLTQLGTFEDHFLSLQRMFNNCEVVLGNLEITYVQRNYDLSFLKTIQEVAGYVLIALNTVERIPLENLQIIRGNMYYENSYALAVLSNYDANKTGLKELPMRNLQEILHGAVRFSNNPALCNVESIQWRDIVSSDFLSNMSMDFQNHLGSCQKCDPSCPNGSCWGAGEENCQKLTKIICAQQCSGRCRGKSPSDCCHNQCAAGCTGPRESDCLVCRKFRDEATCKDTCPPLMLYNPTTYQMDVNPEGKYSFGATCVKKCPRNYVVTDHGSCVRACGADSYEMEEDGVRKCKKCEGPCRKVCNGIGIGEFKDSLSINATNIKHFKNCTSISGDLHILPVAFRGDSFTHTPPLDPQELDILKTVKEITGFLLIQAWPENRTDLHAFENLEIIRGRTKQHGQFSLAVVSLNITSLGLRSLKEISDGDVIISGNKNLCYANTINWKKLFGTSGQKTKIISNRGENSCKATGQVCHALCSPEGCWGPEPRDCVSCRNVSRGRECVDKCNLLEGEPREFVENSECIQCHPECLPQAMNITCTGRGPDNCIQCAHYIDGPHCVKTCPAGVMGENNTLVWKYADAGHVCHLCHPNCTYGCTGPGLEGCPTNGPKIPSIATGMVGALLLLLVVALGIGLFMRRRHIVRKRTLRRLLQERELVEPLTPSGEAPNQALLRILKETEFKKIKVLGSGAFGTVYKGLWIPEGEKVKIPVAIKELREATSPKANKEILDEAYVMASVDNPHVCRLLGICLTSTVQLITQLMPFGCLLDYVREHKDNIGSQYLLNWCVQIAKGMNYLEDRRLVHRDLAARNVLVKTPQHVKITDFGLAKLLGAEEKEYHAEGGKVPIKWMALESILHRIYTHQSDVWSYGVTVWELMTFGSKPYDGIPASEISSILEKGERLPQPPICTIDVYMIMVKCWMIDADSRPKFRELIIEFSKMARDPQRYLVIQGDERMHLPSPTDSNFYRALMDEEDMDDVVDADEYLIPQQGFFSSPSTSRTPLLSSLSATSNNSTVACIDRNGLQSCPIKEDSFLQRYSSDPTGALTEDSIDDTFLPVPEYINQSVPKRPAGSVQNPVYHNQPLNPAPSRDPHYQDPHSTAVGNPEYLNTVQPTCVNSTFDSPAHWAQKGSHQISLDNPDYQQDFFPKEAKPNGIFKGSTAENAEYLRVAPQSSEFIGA
Ba/F3 EGFR L858R/T790M/C797S mutants, sequence (P00533 whole entry T790M/C797S/L858R): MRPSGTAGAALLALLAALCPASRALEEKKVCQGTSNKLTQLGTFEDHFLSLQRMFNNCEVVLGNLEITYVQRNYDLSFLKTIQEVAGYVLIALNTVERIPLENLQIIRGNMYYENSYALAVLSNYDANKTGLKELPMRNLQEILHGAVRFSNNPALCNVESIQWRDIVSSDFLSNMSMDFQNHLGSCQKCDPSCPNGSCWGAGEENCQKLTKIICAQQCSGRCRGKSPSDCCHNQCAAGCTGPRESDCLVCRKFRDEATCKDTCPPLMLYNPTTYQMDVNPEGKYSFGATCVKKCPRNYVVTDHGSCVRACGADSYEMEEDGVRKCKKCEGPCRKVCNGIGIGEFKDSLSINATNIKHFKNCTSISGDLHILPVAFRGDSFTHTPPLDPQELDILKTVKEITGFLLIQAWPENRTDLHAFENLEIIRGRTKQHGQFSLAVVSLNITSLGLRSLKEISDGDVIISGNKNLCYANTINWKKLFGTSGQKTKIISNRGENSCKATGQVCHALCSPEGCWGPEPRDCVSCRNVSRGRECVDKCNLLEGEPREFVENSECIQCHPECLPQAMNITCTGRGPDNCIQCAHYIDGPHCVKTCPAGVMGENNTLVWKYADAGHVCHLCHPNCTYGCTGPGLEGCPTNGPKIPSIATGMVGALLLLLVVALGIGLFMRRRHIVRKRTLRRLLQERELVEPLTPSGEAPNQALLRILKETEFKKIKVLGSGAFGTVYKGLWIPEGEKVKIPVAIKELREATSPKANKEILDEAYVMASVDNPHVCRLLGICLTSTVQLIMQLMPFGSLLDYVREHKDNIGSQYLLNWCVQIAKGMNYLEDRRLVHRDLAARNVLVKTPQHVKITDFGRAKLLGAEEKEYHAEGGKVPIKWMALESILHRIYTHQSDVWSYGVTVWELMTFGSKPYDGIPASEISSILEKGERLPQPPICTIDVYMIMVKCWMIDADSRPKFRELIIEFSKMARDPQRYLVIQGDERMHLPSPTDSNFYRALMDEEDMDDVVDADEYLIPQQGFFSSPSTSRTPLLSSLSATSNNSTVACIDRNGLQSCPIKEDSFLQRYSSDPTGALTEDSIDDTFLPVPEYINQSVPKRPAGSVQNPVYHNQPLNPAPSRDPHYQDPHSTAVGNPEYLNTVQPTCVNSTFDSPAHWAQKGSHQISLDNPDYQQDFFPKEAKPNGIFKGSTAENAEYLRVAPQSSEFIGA
Ba/F3 EGFR Del19/C797S mutants, sequence (P00533 with tags, fused parts or gaps DEL746-750/C797S, form open): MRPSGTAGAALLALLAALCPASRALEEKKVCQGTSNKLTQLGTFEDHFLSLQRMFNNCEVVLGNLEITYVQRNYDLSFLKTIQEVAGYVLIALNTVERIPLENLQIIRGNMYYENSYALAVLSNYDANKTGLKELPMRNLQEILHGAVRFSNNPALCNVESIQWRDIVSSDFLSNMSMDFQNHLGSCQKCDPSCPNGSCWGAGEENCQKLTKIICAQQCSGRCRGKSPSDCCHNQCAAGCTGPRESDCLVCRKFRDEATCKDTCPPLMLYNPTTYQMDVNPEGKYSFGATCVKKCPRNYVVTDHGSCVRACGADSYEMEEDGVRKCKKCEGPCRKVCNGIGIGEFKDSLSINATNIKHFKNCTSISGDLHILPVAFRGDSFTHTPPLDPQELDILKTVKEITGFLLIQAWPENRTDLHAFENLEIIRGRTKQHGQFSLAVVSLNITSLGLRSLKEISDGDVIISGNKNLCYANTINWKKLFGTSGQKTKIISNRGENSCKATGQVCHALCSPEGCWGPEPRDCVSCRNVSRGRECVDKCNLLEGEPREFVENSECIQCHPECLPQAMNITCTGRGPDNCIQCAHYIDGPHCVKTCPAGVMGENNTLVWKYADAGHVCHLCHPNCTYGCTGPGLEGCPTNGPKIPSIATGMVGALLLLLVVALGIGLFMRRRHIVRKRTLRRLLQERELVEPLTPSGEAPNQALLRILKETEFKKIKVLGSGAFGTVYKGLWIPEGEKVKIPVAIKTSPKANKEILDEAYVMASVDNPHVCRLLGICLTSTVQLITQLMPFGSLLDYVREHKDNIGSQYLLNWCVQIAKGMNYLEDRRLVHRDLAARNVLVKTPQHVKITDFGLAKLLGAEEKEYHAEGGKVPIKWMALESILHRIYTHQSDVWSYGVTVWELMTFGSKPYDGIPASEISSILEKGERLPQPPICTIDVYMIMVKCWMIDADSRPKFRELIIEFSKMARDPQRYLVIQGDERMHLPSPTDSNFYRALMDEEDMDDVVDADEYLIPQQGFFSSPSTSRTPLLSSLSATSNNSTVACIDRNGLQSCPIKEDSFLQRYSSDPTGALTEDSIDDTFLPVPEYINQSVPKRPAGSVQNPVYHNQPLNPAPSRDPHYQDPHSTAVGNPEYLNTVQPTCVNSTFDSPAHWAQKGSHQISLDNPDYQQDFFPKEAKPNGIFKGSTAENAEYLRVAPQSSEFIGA

CCc1cc(Nc2ncc(Br)c(Nc3ccc4nccnc4c3N(C)S(C)(=O)=O)n2)c(OC)cc1N1CCN(C2CCN(C)CC2)CC1 [Example A49, N-(6-((5-bromo-2-((5-ethyl-2-methoxy-4-(4-(1-methylpiperidin-4-yl)piperazin-1-yl)phenyl)amino)pyrimidin-4-yl)amino)quinoxalin-5-yl)-N-methylmethane sulfonamide]
GI50 [1]: 4 nM
GI50 [2]: 15 nM
GI50 [3]: 10 nM
GI50 [4]: 64 nM
GI50 [5]: 4 nM
GI50 (Ba/F3 EGFR Wild-type): 243 nM

CCc1cc(Nc2ncc(Br)c(Nc3ccc4nccnc4c3NS(C)(=O)=O)n2)c(OC)cc1N1CCC(N2CCOCC2)CC1 [Example A28, N-(6-((5-bromo-2-((5-ethyl-2-methoxy-4-(4-morpholinopiperidin-1-yl)phenyl)amino)pyrimidin-4-yl)amino)quinoxalin-5-yl)methanesulfonamide]
GI50 [1]: 51 nM
GI50 [2]: 101 nM
GI50 [3]: 36 nM
GI50 [4]: 17 nM
GI50 [5]: 10 nM
GI50 (Ba/F3 EGFR Wild-type): 318 nM

CCS(=O)(=O)Nc1c(Nc2nc(Nc3cc(C)c(N4CCC(N5CCN(C)CC5)CC4)cc3OC)ncc2Cl)ccc2nccnc12 [Example A25, N-(6-((5-chloro-2-((2-methoxy-5-methyl-4-(4-(4-methylpiperazin-1-yl)piperidin-1-yl)phenyl)amino)pyrimidin-4-yl)amino)quinoxalin-5-yl)ethanesulfonamide]
GI50 [1]: 134 nM
GI50 [2]: 112 nM
GI50 [3]: 46 nM
GI50 [4]: 34 nM
GI50 [5]: 18 nM
GI50 (Ba/F3 EGFR Wild-type): 373 nM

CCc1cc(Nc2ncc(Br)c(Nc3cccc(OC)c3NS(C)(=O)=O)n2)c(OC)cc1N1CCC(N2CCN(C)CC2)CC1 [Example C22, N-(2-((5-bromo-2-((5-ethyl-2-methoxy-4-(4-(4-methylpiperazin-1-yl)piperidin-1-yl)phenyl)amino)pyrimidin-4-yl)amino)-6-methoxyphenyl)methanesulfonamide]
GI50 [1]: 2 nM
GI50 [2]: 36 nM
GI50 [3]: 5 nM
GI50 [4]: 25 nM
GI50 [5]: 4 nM
GI50 (Ba/F3 EGFR Wild-type): 738 nM

COc1cc(N2CCC(N3CCN(C)CC3)CC2)c(C)cc1Nc1ncc(Br)c(Nc2ccc3nccnc3c2NS(=O)(=O)C2CC2)n1 [Example A19, N-(6-((5-bromo-2-((2-methoxy-5-methyl-4-(4-(4-methylpiperazin-1-yl)piperidin-1-yl)phenyl)amino)pyrimidin-4-yl)amino)quinoxalin-5-yl)cyclopropanesulfonamide]
GI50 [1]: 24 nM
GI50 [2]: 80 nM
GI50 [3]: 66 nM
GI50 [4]: 43 nM
GI50 [5]: 6 nM
GI50 (Ba/F3 EGFR Wild-type): 395 nM

COc1cc(N2CCC(N3CCN(C)CC3)CC2)ccc1Nc1ncc(Cl)c(Nc2ccc3c(c2NS(C)(=O)=O)OCCO3)n1 [Example C9, N-(6-((5-chloro-2-((2-methoxy-4-(4-(4-methylpiperazin-1-yl)piperidin-1-yl)phenyl)amino)pyrimidin-4-yl)amino)-2,3-dihydrobenzo[b][1,4]dioxin-5-yl)methanesulfonamide]
GI50 [1]: 260 nM
GI50 [2]: 345 nM
GI50 [3]: 281 nM
GI50 [4]: 356 nM
GI50 [5]: 152 nM
GI50 (Ba/F3 EGFR Wild-type): 755 nM

COc1ccc(Nc2nc(Nc3cc(C)c(N4CCC(N5CCCC5)CC4)cc3OC)ncc2Cl)c(NS(C)(=O)=O)c1 [Example C11, N-(2-((5-chloro-2-((2-methoxy-5-methyl-4-(4-(pyrrolidin-1-yl)piperidin-1-yl)phenyl)amino)pyrimidin-4-yl)amino)-5-methoxyphenyl)methanesulfonamide]
GI50 [1]: 9 nM
GI50 [2]: 45 nM
GI50 [3]: 6 nM
GI50 [4]: 39 nM
GI50 [5]: 5 nM
GI50 (Ba/F3 EGFR Wild-type): 458 nM

CCc1cc(Nc2ncc(Br)c(Nc3ccc4nccnc4c3N(C)S(C)(=O)=O)n2)c(OC)cc1N1CC2CCC1CN2C(C)C (stereo not drawn) [Example B30, N-(6-((5-bromo-2-((5-ethyl-4-(5-isopropyl-2,5-diazabicyclo[2.2.2]octan-2-yl)-2-methoxyphenyl)amino)pyrimidin-4-yl)amino)quinoxalin-5-yl)-N-methylmethanesulfonamide]
GI50 [1]: 2 nM
GI50 [2]: 23 nM
GI50 [3]: 11 nM
GI50 [4]: 71 nM
GI50 [5]: 7 nM
GI50 (Ba/F3 EGFR Wild-type): 233 nM

COc1cc(N2CCC(N3CCN(C)CC3)CC2)c(C)cc1Nc1ncc(Br)c(Nc2cccc(OC)c2N(C)S(C)(=O)=O)n1 [Example C21, N-(2-((5-bromo-2-((2-methoxy-5-methyl-4-(4-(4-methylpiperazin-1-yl)piperidin-1-yl)phenyl)amino)pyrimidin-4-yl)amino)-6-methoxyphenyl)-N-methylmethanesulfonamide]
GI50 [1]: 13 nM
GI50 [2]: 61 nM
GI50 [3]: 10 nM
GI50 [4]: 49 nM
GI50 [5]: 18 nM
GI50 (Ba/F3 EGFR Wild-type): 660 nM

CCc1cc(Nc2ncc(Cl)c(Nc3ccc4c(c3N(C)S(C)(=O)=O)OCCO4)n2)c(OC)cc1N1CCC(N2CCOCC2)CC1 [Example C30, N-(6-((5-chloro-2-((5-ethyl-2-methoxy-4-(4-morpholinopiperidin-1-yl)phenyl)amino)pyrimidin-4-yl)amino)-2,3-dihydrobenzo[b][1,4]dioxin-5-yl)-N-methylmethanesulfonamide]
GI50 [1]: 13 nM
GI50 [2]: 38 nM
GI50 [3]: 6 nM
GI50 [4]: 35 nM
GI50 [5]: 10 nM
GI50 (Ba/F3 EGFR Wild-type): 664 nM

CCCc1cc(Nc2ncc(Cl)c(Nc3ccc4nccnc4c3NS(C)(=O)=O)n2)c(OC)cc1N1CCC(N2CCN(C)CC2)CC1 [Example A6, N-(6-((5-chloro-2-((2-methoxy-4-(4-(4-methylpiperazin-1-yl)piperidin-1-yl)-5-propylphenyl)amino)pyrimidin-4-yl)amino)quinoxalin-5-yl)methanesulfonamide]
GI50 [1]: 4 nM
GI50 [2]: 29 nM
GI50 [3]: 14 nM
GI50 [4]: 12 nM
GI50 [5]: 5 nM
GI50 (Ba/F3 EGFR Wild-type): 498 nM

COc1cc(N2CCC(N3CCN(C)C4(CC4)C3)CC2)ccc1Nc1ncc(Cl)c(Nc2ccc3nccnc3c2NS(C)(=O)=O)n1 [Example A15, N-(6-((5-chloro-2-((2-methoxy-4-(4-(4-methyl-4,7-diazaspiro[2.5]octan-7-yl)piperidin-1-yl)phenyl)amino)pyrimidin-4-yl)amino)quinoxalin-5-yl)methanesulfonamide]
GI50 [1]: 211 nM
GI50 [2]: 423 nM
GI50 [3]: 295 nM
GI50 [4]: 473 nM
GI50 [5]: 156 nM
GI50 (Ba/F3 EGFR Wild-type): 811 nM

COc1cc(C2CCN(C(C)=O)CC2)ccc1Nc1ncc(Cl)c(Nc2ccc3nccnc3c2NS(C)(=O)=O)n1 [Example B8, N-(6-((2-((4-(1-acetylpiperidin-4-yl)-2-methoxyphenyl)amino)-5-chloropyrimidin-4-yl)amino)quinoxalin-5-yl)methanesulfonamide]
GI50 [1]: 292 nM
GI50 [2]: 554 nM
GI50 [3]: 320 nM
GI50 [4]: 861 nM
GI50 [5]: 424 nM
GI50 (Ba/F3 EGFR Wild-type): 729 nM

CCc1cc(Nc2ncc(Br)c(Nc3ccc4nccnc4c3N(C)S(C)(=O)=O)n2)c(OC)cc1N1CCC(N2CCOCC2)CC1 [Example A39, N-(6-((5-bromo-2-((5-ethyl-2-methoxy-4-(4-morpholinopiperidin-1-yl)phenyl)amino)pyrimidin-4-yl)amino)quinoxalin-5-yl)-N-methylmethanesulfonamide]
GI50 [1]: 8 nM
GI50 [2]: 61 nM
GI50 [3]: 8 nM
GI50 [4]: 35 nM
GI50 [5]: 4 nM
GI50 (Ba/F3 EGFR Wild-type): 779 nM

CCc1cc(Nc2ncc(Cl)c(Nc3ccc4nccnc4c3NS(C)(=O)=O)n2)c(OC)cc1N1CCC(N2CCCC2)CC1 [Example A34, N-(6-((5-chloro-2-((5-ethyl-2-methoxy-4-(4-(pyrrolidin-1-yl)piperidin-1-yl)phenyl)amino)pyrimidin-4-yl)amino)quinoxalin-5-yl)methanesulfonamide]
GI50 [1]: 4 nM
GI50 [2]: 16 nM
GI50 [3]: 1 nM
GI50 [4]: 13 nM
GI50 [5]: 5 nM
GI50 (Ba/F3 EGFR Wild-type): > 2000 nM

CCc1cc(Nc2ncc(Cl)c(Nc3ccc4nccnc4c3N(C)S(C)(=O)=O)n2)c(OC)cc1N1CC2CCC1CN2C(C)C (stereo not drawn) [Example B28, N—N-(6-((5-chloro-2-((5-ethyl-4-(5-isopropyl-2,5-diazabicyclo[2.2.2]octan-2-yl)-2-methoxyphenyl)amino)pyrimidin-4-yl)amino)quinoxalin-5-yl)-N-methylmethanesulfonamide]
GI50 [1]: 5 nM
GI50 [2]: 26 nM
GI50 [3]: 14 nM
GI50 [4]: 50 nM
GI50 [5]: 23 nM
GI50 (Ba/F3 EGFR Wild-type): 332 nM

CCCc1cc(Nc2ncc(Cl)c(Nc3cccc(OC)c3NS(C)(=O)=O)n2)c(OC)cc1N1CCC(N2CCOCC2)CC1 [Example C23, N-(2-((5-chloro-2-((2-methoxy-4-(4-morpholinopiperidin-1-yl)-5-propylphenyl)amino)pyrimidin-4-yl)amino)-6-methoxyphenyl)methanesulfonamide]
GI50 [1]: 10 nM
GI50 [2]: 72 nM
GI50 [3]: 14 nM
GI50 [4]: 137 nM
GI50 [5]: 30 nM
GI50 (Ba/F3 EGFR Wild-type): 1680 nM
